Strand notation (5' to 3'): a small letter for the sugar, then the base; units joined by * are phosphorothioate-linked, units joined directly phosphodiester-linked; [ ] holds rarer units or linkages, { } end groups; capitals alone tell only the bases. [ms] = mesyl phosphoramidate linkage; k = constrained ethyl (cEt); [5mC] = 5-methylcytosine; d = 2'-deoxy (DNA)
System: human APOE RNA
Experiment: Dose-dependent inhibition of human APOE RNA in HepG2 cells, electroporation, 50,000 cells per well, RT-PCR normalized to GAPDH (Example 4, Tables 8-10)
Type: cell-based
Conditions: 5 nM; HepG2, electroporation, 24-hour treatment
Procedure, shortened: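 Readout is percent APOE RNA versus untreated controls, measured by RT-PCR (primer probe set RTS3073) and normalized to human GAPDH. Modified oligonucleotides were delivered by electroporation at varying doses into HepG2 cells plated at 50,000 per well.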

| Substance | APOE RNA (% UTC) |
| --- | --- |
| 1746804 (k[5mC]*kT*kT*dG[ms]dG[ms]dT[ms]dG[ms]dA[ms]dA[ms]dT*d[5mC]*dT*dT*dT*dA[ms]dT*dT[ms]kA*kA*kA; antisense) [Compound 1746804] | 89 % UTC |

Same assay, conditions: 13 nM; HepG2, electroporation, 24-hour treatment

| Substance | APOE RNA (% UTC) |
| --- | --- |
| 1746804 (k[5mC]*kT*kT*dG[ms]dG[ms]dT[ms]dG[ms]dA[ms]dA[ms]dT*d[5mC]*dT*dT*dT*dA[ms]dT*dT[ms]kA*kA*kA; antisense) [Compound 1746804] | 88 % UTC |

Same assay, conditions: 33 nM; HepG2, electroporation, 24-hour treatment

| Substance | APOE RNA (% UTC) |
| --- | --- |
| 1746804 (k[5mC]*kT*kT*dG[ms]dG[ms]dT[ms]dG[ms]dA[ms]dA[ms]dT*d[5mC]*dT*dT*dT*dA[ms]dT*dT[ms]kA*kA*kA; antisense) [Compound 1746804] | 80 % UTC |

Same assay, conditions: 82 nM; HepG2, electroporation, 24-hour treatment

| Substance | APOE RNA (% UTC) |
| --- | --- |
| 1746804 (k[5mC]*kT*kT*dG[ms]dG[ms]dT[ms]dG[ms]dA[ms]dA[ms]dT*d[5mC]*dT*dT*dT*dA[ms]dT*dT[ms]kA*kA*kA; antisense) [Compound 1746804] | 81 % UTC |

Same assay, conditions: 205 nM; HepG2, electroporation, 24-hour treatment

| Substance | APOE RNA (% UTC) |
| --- | --- |
| 1746804 (k[5mC]*kT*kT*dG[ms]dG[ms]dT[ms]dG[ms]dA[ms]dA[ms]dT*d[5mC]*dT*dT*dT*dA[ms]dT*dT[ms]kA*kA*kA; antisense) [Compound 1746804] | 66 % UTC |

Same assay, conditions: 512 nM; HepG2, electroporation, 24-hour treatment

| Substance | APOE RNA (% UTC) |
| --- | --- |
| 1746804 (k[5mC]*kT*kT*dG[ms]dG[ms]dT[ms]dG[ms]dA[ms]dA[ms]dT*d[5mC]*dT*dT*dT*dA[ms]dT*dT[ms]kA*kA*kA; antisense) [Compound 1746804] | 57 % UTC |

Same assay, conditions: 1,280 nM; HepG2, electroporation, 24-hour treatment

| Substance | APOE RNA (% UTC) |
| --- | --- |
| 1746804 (k[5mC]*kT*kT*dG[ms]dG[ms]dT[ms]dG[ms]dA[ms]dA[ms]dT*d[5mC]*dT*dT*dT*dA[ms]dT*dT[ms]kA*kA*kA; antisense) [Compound 1746804] | 45 % UTC |

Same assay, conditions: 3,200 nM; HepG2, electroporation, 24-hour treatment

| Substance | APOE RNA (% UTC) |
| --- | --- |
| 1746804 (k[5mC]*kT*kT*dG[ms]dG[ms]dT[ms]dG[ms]dA[ms]dA[ms]dT*d[5mC]*dT*dT*dT*dA[ms]dT*dT[ms]kA*kA*kA; antisense) [Compound 1746804] | 40 % UTC |

Same assay, conditions: 8,000 nM; HepG2, electroporation, 24-hour treatment

| Substance | APOE RNA (% UTC) |
| --- | --- |
| 1746804 (k[5mC]*kT*kT*dG[ms]dG[ms]dT[ms]dG[ms]dA[ms]dA[ms]dT*d[5mC]*dT*dT*dT*dA[ms]dT*dT[ms]kA*kA*kA; antisense) [Compound 1746804] | 4 % UTC |

Same assay, conditions: 20,000 nM; HepG2, electroporation, 24-hour treatment

| Substance | APOE RNA (% UTC) |
| --- | --- |
| 1746804 (k[5mC]*kT*kT*dG[ms]dG[ms]dT[ms]dG[ms]dA[ms]dA[ms]dT*d[5mC]*dT*dT*dT*dA[ms]dT*dT[ms]kA*kA*kA; antisense) [Compound 1746804] | 2 % UTC |

Same assay, conditions: HepG2, electroporation, 24-hour treatment

| Substance | IC50 |
| --- | --- |
| 1746804 (k[5mC]*kT*kT*dG[ms]dG[ms]dT[ms]dG[ms]dA[ms]dA[ms]dT*d[5mC]*dT*dT*dT*dA[ms]dT*dT[ms]kA*kA*kA; antisense) [Compound 1746804] | 680 nM |

System: human APOE RNA
Experiment: Dose-dependent inhibition of human APOE RNA in differentiated SH-SY5Y cells, free uptake, 5 days (Example 5)
Type: cell-based
Conditions: 5 nM, 5 days (Table 14)
Procedure: Modified oligonucleotides selected from the examples above were tested at various doses in differentiated SH-SY5Y cells. The modified oligonucleotides were tested in a series of experiments that had the same culture conditions.
Differentiated SH-SY5Y cells plated at a density of 10,000 cells per well were treated by free uptake with various concentrations of modified oligonucleotide as specified in the tables below. […] APOE RNA levels were measured using the human primer probe set RTS3073 (described herein above). APOE RNA levels were normalized to human PPIA. Human PPIA was amplified using human primer probe set mk_cycloA_2nd (described herein above). Results are presented as percent APOE RNA, relative to the amount of APOE RNA in untreated control cells (% UTC). The half maximal inhibitory concentration (IC50) of each modified oligonucleotide was calculated in GraphPad Prism 10 (GraphPad Software, San Diego, CA) and is also presented in the tables below.

| Substance | APOE RNA (% UTC) |
| --- | --- |
| 1746804 (k[5mC]*kT*kT*dG[ms]dG[ms]dT[ms]dG[ms]dA[ms]dA[ms]dT*d[5mC]*dT*dT*dT*dA[ms]dT*dT[ms]kA*kA*kA; antisense) [Compound 1746804] | 114 % UTC |

Same assay, conditions: 13 nM, 5 days (Table 14)

| Substance | APOE RNA (% UTC) |
| --- | --- |
| 1746804 (k[5mC]*kT*kT*dG[ms]dG[ms]dT[ms]dG[ms]dA[ms]dA[ms]dT*d[5mC]*dT*dT*dT*dA[ms]dT*dT[ms]kA*kA*kA; antisense) [Compound 1746804] | 117 % UTC |

Same assay, conditions: 33 nM, 5 days (Table 14)

| Substance | APOE RNA (% UTC) |
| --- | --- |
| 1746804 (k[5mC]*kT*kT*dG[ms]dG[ms]dT[ms]dG[ms]dA[ms]dA[ms]dT*d[5mC]*dT*dT*dT*dA[ms]dT*dT[ms]kA*kA*kA; antisense) [Compound 1746804] | 120 % UTC |

Same assay, conditions: 82 nM, 5 days (Table 14)

| Substance | APOE RNA (% UTC) |
| --- | --- |
| 1746804 (k[5mC]*kT*kT*dG[ms]dG[ms]dT[ms]dG[ms]dA[ms]dA[ms]dT*d[5mC]*dT*dT*dT*dA[ms]dT*dT[ms]kA*kA*kA; antisense) [Compound 1746804] | 97 % UTC |

From patent publication US20250353873A1, “COMPOUNDS AND METHODS FOR MODULATING APOE EXPRESSION” (Ionis Pharmaceuticals, Inc., priority 2024, published 2025)
